Assay results reported in patent publication US8366962B2, “Polymerizable liquid crystal compounds having oxiranyl group, polymerizable liquid crystal compositions and polymers” (JNC Corporation, priority 2009, dated 2013).

Assay: Solubility in PGMEA/MMP: deposition of crystals when the solution is allowed to stand at room temperature
Format: physicochemical
Settings: 70/30 by weight mixture with compound (M1-19-1), 30% by weight solution in PGMEA/MMP=9/1 by volume
Excerpt: Incidentally, PGMEA and MMP stand for propylene glycol […] ether acetate and methyl 3-methoxypropionate, respectively.

## Cc1cc(OC(=O)c2ccc(OCCCCOCC3(C)CO3)cc2)ccc1OC(=O)c1ccc(OCCCCOCC2(C)CO2)cc1 (stereo not shown) [Compound (1-1-14)]
  time allowed to stand without deposition of crystals: more than 3 days
